Molecular target: T1, SGLT5-TM (S70N–E71I–L75H) (Homo sapiens, UniProt A0PJK1, E71I/L75H/S70N)
T1 construct: pUB83-hSGLT5-iso2 as well as the various SGLT5 mutants obtained were used to transduce HEK293T cells; expressed in transfected cells; host or cells: HEK293T, lentiviral transduction (pUB83)
Assay: Inhibition of 10 µM 1,5-AG transport by triple mutant SGLT5-TM (S70N-E71I-L75H)
Format: cell-based
Experimental: The transport experiments to study the specificity of SGLT4 or SGLT5, were performed in the presence of 10 µM U-[^14C + ^12C]-mannose (for SGLT4) or 2-[^3H + ^1H]-1,5-AG (for SGLT5) and increasing concentrations of various sugars tested. The transport experiments to study the inhibition of empagliflozin, dapagliflozin or remogliflozin, on the transport of 1,5-AG by SGLT5 or its variants were performed in the presence of 10 µM 2-[^3H + ^1H]-1,5-AG and increasing concentrations of the various gliflozins tested.
SGLT5 mutants were created using the quick-change site directed mutagenesis method that enables effective mutagenesis without subcloning of the amplified PCR products. Complementary primer pairs carrying the desired replacements (Supplementary Table 3) were designed using an online tool (https://www.agilent.com/store/primerDesignProgram.jsp). The PCR protocol was carried out following the manufacturer instructions regarding the KOD HOT Start polymerase kit (TOYOBO™, Novagen). The amplified DNA was cleaned-up from the reactions constituents using the GeneJET PCR purification Kit (Thermo Scientific™) and the size of the DNA fragment were verified by DNA agarose-gel electrophoresis. After eliminating the parental DNA by digesting the purified DNA with the DpnI restriction enzyme, the DNA fragments containing the appropriate changes were transformed in E. coli NEB Turbo competent cells (C2984H). Once colonies were obtained, plasmid DNA was finally amplified, purified and sequenced to verify that the required changes had been introduced and eliminate any PCR errors. Next, pUB83-hSGLT5-iso2 as well as the various SGLT5 mutants obtained were used to transduce HEK293T cells using the exact same protocol as described above to create model cell lines overexpressing the different SGLT5 transporters.
Supplementary Fig. 7: Substrate specificity of SGLT5 - impact of replacing specific and conserved substrate binding residues in human SGLT5 by the equivalent ones in […]
When shown, the IC50 values are derived from inhibition curves showing the transport activity of 1,5-AG by the indicated SGLT5 mutants. Values show the concentration needed of the various sugars to inhibit by 50% the transport activity of 10 µM 2-[1H+3H]-1,5-AG. When the inhibition was too weak to derive IC50 values, the inhibition of the transport of 1,5-AG with the indicated concentration of the inhibitor-sugar is shown. Of note, despite having a lower […]
µM). These apparently contradictory changes are not necessarily surprising: in the case of enzymes, there are multiple examples of mutations that, at the same time, increase the apparent affinity (decrease the Km) of an enzyme for its substrate while decreasing the Vmax.
Measurement of transport activities and the description of the structures of the various inhibitory sugars used are as in Fig. 3C. Data corresponds to n = 3 in at least 2 independent […]
(1 picture or pasted object on this page, not shown here)

T1 sequence (A0PJK1 whole entry S70N/E71I/L75H): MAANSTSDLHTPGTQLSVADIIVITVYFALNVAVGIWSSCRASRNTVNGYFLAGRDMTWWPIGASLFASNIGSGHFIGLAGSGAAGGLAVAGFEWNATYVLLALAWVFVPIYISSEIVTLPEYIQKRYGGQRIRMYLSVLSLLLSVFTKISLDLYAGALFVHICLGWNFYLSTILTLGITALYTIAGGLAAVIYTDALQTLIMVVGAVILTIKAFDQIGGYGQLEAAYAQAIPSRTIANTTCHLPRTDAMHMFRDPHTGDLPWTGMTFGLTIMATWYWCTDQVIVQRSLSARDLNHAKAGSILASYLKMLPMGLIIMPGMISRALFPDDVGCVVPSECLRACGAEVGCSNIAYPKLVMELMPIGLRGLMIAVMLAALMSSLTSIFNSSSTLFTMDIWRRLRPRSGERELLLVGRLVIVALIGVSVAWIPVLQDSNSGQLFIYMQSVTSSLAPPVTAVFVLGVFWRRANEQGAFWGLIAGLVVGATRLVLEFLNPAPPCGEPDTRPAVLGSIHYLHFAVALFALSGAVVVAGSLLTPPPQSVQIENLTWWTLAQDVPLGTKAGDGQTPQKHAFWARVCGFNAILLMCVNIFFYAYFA

| Structure (SMILES) | IC50 for 1,5-AG lower than the IC50 for SGLT5-WT (33 µM versus 162 µM) [fold] | inhibition of SGLT5-TM (competition experiments, Supplementary Fig. 7) | loss of affinity of SGLT5-TM (versus wild-type SGLT5, competition experiments, Supplementary Fig. 7) |
| --- | --- | --- | --- |
| OC[C@H]1OC[C@H](O)[C@@H](O)[C@@H]1O [1,5-AG, 1,5-anhydroglucitol] | 5 | still being inhibited | – |
| OC[C@H]1OC(O)[C@@H](O)[C@@H](O)[C@@H]1O (stereo partly drawn) [Mannose, mannose] | – | – | tenfold |
